According to publication PMC5063506, “A Novel Class of Small Molecule Agonists with Preference for Human over Mouse TLR4 Activation” (PLoS ONE, 2016):
In brackets after ≈: the same amount, converted by molar mass.

Key:
[1] = Solubility by dissolution of solid samples in buffer; type: physicochemical; settings: aqueous buffer, thermodynamic from solid; solid samples in buffer at pH 7.4
Excerpt: Fig 2 Optimization stages of Ugi products as TLR4 agonists. *Human TLR-4 NFκB SEAP reporter assays; protocol as described in Methods. Data are reported as pEC50, or negative log of the EC50 values. **Clint rh / hm represents intrinsic clearance in presence of rat hepatocytes (μL/min/10^6 cells) and human microsomes (μL/min/mg protein). […] Thus a drug molecule with LogD >4 might be considered to be very lipophilic and therefore more likely to suffer from rapid metabolic turnover, poor solubility and receptor promiscuity; whereas a LogD range of 1–3 is more likely to be associated with optimal physicochemical and drug-like properties. ^††Solubility was measured by dissolution of solid samples in buffer at pH 7.4.

[2] = tested on: cytochrome P450 enzymes; assay: Inhibition of cytochrome P450 enzymes (unpublished data); type: in vitro ADME; settings: compared with earlier-stage, more lipophilic Ugi compounds
[3] = tested on: hTLR4/MD2 KIKO mice; assay: In vivo serum cytokines in hTLR4/MD2 KIKO mice; parameters: species or system mouse; settings: 50 μg IP, serum at 2 h and 6 h
Excerpt: The humanized TLR4/MD-2 mice, described in detail in [15], express human TLR4 and human MD-2 from bacterial artificial chromosome transgenes that were bred to the mouse TLR4/MD-2 double-knockout (DKO) on a C57BL/6J background. Because the hMD-2 BAC transgene is integrated on the Y-chromosome, only male mice were used in the study. Generally, hMD-2 BAC+ males are bred to hTLR4 BAC+ females (both on DKO background) and male pups were screened for the presence of hTLR4 BAC. Double positives served as the fully humanized TLR4/MD-2 mice and hTLR4 BAC negative mice served as functional KO. Wild-type C57BL/6 mice were bred in parallel. All breeding was performed in an SPF facility at the University of Washington and all protocols were approved by the University of Washington IACUC. For in vivo cytokines, mice were injected intraperitoneally with 50 μg of either AZ618 or MPL in 0.2 ml PBS. Mice were bled from the retroorbital sinus 2 h after injection and terminal cardiocentesis was performed at 6 h for the second blood sample. Serum samples were analyzed via MILLIPLEX kits (EMD Millipore).
C57BL/6 mice (6–12 per group) were immunized IP with 50 μg MPL or AZ618 and then were bled at 2 h via retro-orbital route and at 6 h via cardiac puncture. Serum was analyzed by multiplex Millipore kits for cytokine content. […]

Row | Structure (SMILES) | solubility [1] [µM] | inhibition of one or more cytochrome P450 enzymes [2] | serum cytokine induction in hTLR4/MD2 KIKO mice [3]
1 | O=C(O)Cc1ccc(C(C(=O)NC2CCCC2)N(C(=O)c2cc(-c3ccccc3)n(-c3ccccc3)n2)c2ccc3c(c2)CCC3)cc1 (stereo not drawn) [AZ617] | 129 (≈ 82.4 µg/mL) | abolished | –
2 | Cc1cc(C)cc(N(C(=O)c2cc(-c3ccccc3)n(-c3ccccc3)n2)C(C(=O)NC2CCCC2)c2ccc(CC(=O)O)cc2)c1 (stereo not drawn) [AZ618, 2-(4-(2-(cyclopentylamino)-1-(N-(3,5-dimethylphenyl)-1,5-diphenyl-1H-pyrazole-3-carboxamido)-2-oxoethyl)phenyl)acetic acid] | – | – | induced a very similar pattern of cytokines
